Assay results taken from PubChem BioAssay (NCI).
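Protocol summary: plate cells (96-well), add compound at 5 concentrations, incubate 48 h, interpolate endpoints linearly. Definition used: TGI = concentration required for complete inhibition of growth.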

Experiments:
Assay in all cases: NCI anticancer screen, dose series, 48 h
786-0 renal = tested on: 786-0 renal
CCRF-CEM leukemia = tested on: CCRF-CEM leukemia
HCT-116 colon = tested on: HCT-116 colon
HOP-62 NSCLC = tested on: HOP-62 NSCLC
K-562 leukemia = tested on: K-562 leukemia
LOX IMVI melanoma = tested on: LOX IMVI melanoma
OVCAR-4 ovarian = tested on: OVCAR-4 ovarian
OVCAR-5 ovarian = tested on: OVCAR-5 ovarian
PC-3 prostate = tested on: PC-3 prostate
SF-268 CNS = tested on: SF-268 CNS
SK-MEL-28 melanoma = tested on: SK-MEL-28 melanoma
UACC-257 melanoma = tested on: UACC-257 melanoma
UO-31 renal = tested on: UO-31 renal

[O-]/[N+](=N/c1ncc(-c2ccccc2)cn1)c1ncc(-c2ccccc2)cn1
TGI (786-0 renal): > 100 µM | TGI (CCRF-CEM leukemia): > 100 µM | TGI (HCT-116 colon): > 100 µM | TGI (HOP-62 NSCLC): > 100 µM | TGI (K-562 leukemia): > 100 µM | TGI (LOX IMVI melanoma): > 100 µM | TGI (OVCAR-4 ovarian): > 100 µM | TGI (OVCAR-5 ovarian): > 100 µM | TGI (PC-3 prostate): > 100 µM | TGI (SF-268 CNS): > 100 µM | TGI (SK-MEL-28 melanoma): > 100 µM | TGI (UACC-257 melanoma): > 100 µM | TGI (UO-31 renal): > 100 µM

Nc1ncnc2c1ncn2[C@@H]1C[C@H](NO)[C@@H](O)[C@H]1O
TGI (786-0 renal): > 100 µM | TGI (CCRF-CEM leukemia): > 100 µM | TGI (HCT-116 colon): > 100 µM | TGI (HOP-62 NSCLC): > 100 µM | TGI (K-562 leukemia): > 100 µM | TGI (LOX IMVI melanoma): > 100 µM | TGI (OVCAR-4 ovarian): > 100 µM | TGI (OVCAR-5 ovarian): > 100 µM | TGI (PC-3 prostate): > 100 µM | TGI (SF-268 CNS): > 100 µM | TGI (SK-MEL-28 melanoma): > 100 µM | TGI (UACC-257 melanoma): > 100 µM | TGI (UO-31 renal): > 100 µM

COC(=O)/C=C/C(=O)Nc1cc(Cl)c(Cl)cc1CC(=O)N(C)[C@H]1CCCC[C@@H]1N1CCCC1
TGI (786-0 renal): 22.1 µM | TGI (CCRF-CEM leukemia): > 100 µM | TGI (HCT-116 colon): 23.3 µM | TGI (HOP-62 NSCLC): 33.3 µM | TGI (K-562 leukemia): > 33.5 µM | TGI (LOX IMVI melanoma): 24.4 µM | TGI (OVCAR-4 ovarian): > 41.6 µM | TGI (OVCAR-5 ovarian): 32 µM | TGI (PC-3 prostate): 17.9 µM | TGI (SF-268 CNS): 35.5 µM | TGI (SK-MEL-28 melanoma): 33.7 µM | TGI (UACC-257 melanoma): 13 µM | TGI (UO-31 renal): 21.3 µM

O=C1OC(C2Cc3ccc4c(c3C2=O)CCCC4)c2ccccc21 (stereo not given)
TGI (786-0 renal): > 100 µM | TGI (CCRF-CEM leukemia): > 100 µM | TGI (HCT-116 colon): > 100 µM | TGI (HOP-62 NSCLC): > 100 µM | TGI (K-562 leukemia): > 100 µM | TGI (LOX IMVI melanoma): > 100 µM | TGI (OVCAR-4 ovarian): > 100 µM | TGI (OVCAR-5 ovarian): > 100 µM | TGI (PC-3 prostate): > 100 µM | TGI (SF-268 CNS): > 100 µM | TGI (SK-MEL-28 melanoma): > 100 µM | TGI (UACC-257 melanoma): > 100 µM | TGI (UO-31 renal): > 100 µM

CC1(C)CC2C(/C1=N/O)C1(C)CCCC2(C)C1O (stereo not given)
TGI (786-0 renal): > 100 µM | TGI (CCRF-CEM leukemia): > 100 µM | TGI (HCT-116 colon): > 100 µM | TGI (HOP-62 NSCLC): > 100 µM | TGI (K-562 leukemia): > 100 µM | TGI (LOX IMVI melanoma): > 100 µM | TGI (OVCAR-4 ovarian): > 100 µM | TGI (OVCAR-5 ovarian): > 100 µM | TGI (PC-3 prostate): > 100 µM | TGI (SF-268 CNS): > 100 µM | TGI (SK-MEL-28 melanoma): > 100 µM | TGI (UACC-257 melanoma): > 100 µM | TGI (UO-31 renal): > 100 µM

N/N=C(/CC(O)(C(F)(F)F)C(F)(F)F)c1ccccc1
TGI (786-0 renal): > 10 µM | TGI (CCRF-CEM leukemia): > 10 µM | TGI (HCT-116 colon): > 10 µM | TGI (HOP-62 NSCLC): > 10 µM | TGI (K-562 leukemia): > 10 µM | TGI (LOX IMVI melanoma): > 10 µM | TGI (OVCAR-4 ovarian): > 10 µM | TGI (OVCAR-5 ovarian): > 10 µM | TGI (PC-3 prostate): > 10 µM | TGI (SF-268 CNS): > 10 µM | TGI (SK-MEL-28 melanoma): > 10 µM | TGI (UACC-257 melanoma): > 10 µM

CNc1cccc2c1C(C)C[C@]1(C)C(=O)Nc3ccccc3[C@H]21 (stereo not given in full)
TGI (786-0 renal): 32.9 µM | TGI (CCRF-CEM leukemia): > 100 µM | TGI (HCT-116 colon): 34.8 µM | TGI (HOP-62 NSCLC): 36.4 µM | TGI (K-562 leukemia): > 100 µM | TGI (LOX IMVI melanoma): 33.7 µM | TGI (OVCAR-4 ovarian): 35.9 µM | TGI (OVCAR-5 ovarian): > 100 µM | TGI (PC-3 prostate): 74.5 µM | TGI (SF-268 CNS): > 100 µM | TGI (SK-MEL-28 melanoma): 91.8 µM | TGI (UACC-257 melanoma): 39.3 µM | TGI (UO-31 renal): 52.4 µM

COc1cccc(N2C(=O)C3c4[nH]c5ccc(C)cc5c4C4CCC(C)CC4C3C2=O)c1 (stereo not given)
TGI (786-0 renal): > 100 µM | TGI (CCRF-CEM leukemia): > 100 µM | TGI (HCT-116 colon): > 100 µM | TGI (HOP-62 NSCLC): 42.6 µM | TGI (K-562 leukemia): > 100 µM | TGI (LOX IMVI melanoma): > 100 µM | TGI (OVCAR-5 ovarian): > 100 µM | TGI (PC-3 prostate): > 100 µM | TGI (SF-268 CNS): > 100 µM | TGI (SK-MEL-28 melanoma): > 100 µM | TGI (UACC-257 melanoma): > 100 µM | TGI (UO-31 renal): > 100 µM

O=C1Nc2ccccc2/C1=N/N1C(=O)/C(=C/c2ccccc2S)N=C1c1ccccc1
TGI (786-0 renal): > 100 µM | TGI (CCRF-CEM leukemia): > 100 µM | TGI (HCT-116 colon): > 100 µM | TGI (HOP-62 NSCLC): > 100 µM | TGI (K-562 leukemia): > 100 µM | TGI (LOX IMVI melanoma): > 100 µM | TGI (OVCAR-4 ovarian): > 100 µM | TGI (OVCAR-5 ovarian): > 100 µM | TGI (PC-3 prostate): > 100 µM | TGI (SF-268 CNS): > 100 µM | TGI (SK-MEL-28 melanoma): > 100 µM | TGI (UACC-257 melanoma): > 100 µM | TGI (UO-31 renal): > 100 µM
